Test results reported in patent US8716237B2, “Methods for the treatment or prevention of hemorrhagic conditions” (University of Rochester, priority 2007, dated 2014).

How the values were obtained:
PAI-1 = PAI-1 induction in BEAS-2B, SAEC and NHBE cells; format: cell-based, human; details: SB203580
Text: J. Physiol. Lung Cell. Mol. Physiol. 281:L616-23 (2001), and Hasegawa et al., “Decreased Intracellular Iron Availability Suppresses Epithelial Cell Surface Plasmin Generation. Transcriptional and Post-transcriptional Effects on u-PA and PAI-1 Expression,” Am. J. Respir. Cell. Mol. Biol. 21:275-82 (1999), each of which is hereby incorporated by reference in its entirety. Wild type and Cyld-deficient mouse embryonic fibroblasts were obtained from E13 embryos and maintained in DMEM supplemented with 10% FBS (Invitrogen). […]
Cells were cultured on 12-well plates and transfected with various expression plasmids, as described in Examples 1-15 and the Brief Description of the Drawings. […] After 5 hours, the cells were harvested for either RNA extraction and real-time quantitative PCR analysis as described in the Examples or luciferase assay. […]
Total RNA was isolated with TRIzol reagent (Invitrogen) by following the manufacturer's instructions. Real-Time Quantitative RT-PCR analysis of PAI-1 and CYLD were performed as described in Jono et al., “NF-κB Is Essential for Induction of CYLD, the Negative Regulator of NF-κB: Evidence for a Novel Inducible Autoregulatory Feedback Pathway,” J. Biol. Chem. 279:36171-4 (2004), which is hereby incorporated by reference in its entirety. […]

Cyld−/− mice = experiment: Survival of Cyld−/− mice inoculated with S. pneumoniae after pretreatment; format: in vivo, mouse; details: SB203580 10 mg/kg intraperitoneally 2 hours before S. pneumoniae inoculation
Experimental: For S. pneumoniae-induced lethal infections in wild type, Cyld^−/−, Mkk3^−/−, and PAI-1^−/− mice, anaesthetized mice were intratracheally inoculated with live S. pneumoniae, S. pneumoniae wild type or pneumolysin mutant lysate, or pneumolysin (“PLY”), at a concentration of 5×10^7CFU per mouse for live bacteria and bacterial lysate and 200 ng/mouse for PLY in all experiments unless otherwise indicated, and saline was inoculated as control. The mice were monitored for lethality every 2 hours for the first 12 hours and every 12 hours for 5 days thereafter. To assess the effect of perturbing p38 MAPK signaling on S. pneumoniae-induced lethality in Cyld^−/− mice, Cyld^−/− mice were pretreated with the p38 inhibitor SB203580 (10 mg/kg, intraperitoneally in Cyld^−/− mice) 2 hours before S. pneumoniae inoculation, and mice were then intratracheally inoculated with S. pneumoniae. To determine the effect of administration of exogenous PAI-1 on S. pneumoniae-induced lethality, mice were intratracheally administered with mouse rPAI-1 (12.5 μg/mouse) or saline as control, followed by S. pneumoniae and PLY inoculation 1 day after PAI-1 administration. For PAI-1 neutralization in Cyld^−/− mice, Cyld^−/− mice were intraperitoneally injected with α-PAI-1 mAb (25 μg/mouse for histological analysis and 50 μg/mouse for lethality) 2 hours before S. pneumoniae inoculation. Mouse IgG was used as control. […] Lung tissues were then subjected to histological analysis and total mRNA and protein extraction. In all Examples, saline was used as a control unless otherwise specified.
To assess the effect of perturbing NF-κB signaling on S.p.-induced lethality in Cyld^−/− mice, Cyld^−/− mice were pretreated with the IKK inhibitor Wedelolactone (10 mg/kg, intraperitoneally) 2 hours before S.p. inoculation, and mice were then intratracheally inoculated with S.p.
Differences in survival between wild-type, Cyld-deficient (“Cyld^−/−”), Mkk3-deficient (“Mkk3^−/−”), and PAI/−/−deficient (“PAI-1^−/−”) mice after saline, S. pneumoniae, S. pneumoniae lysate, and/or pneumolysin inoculation with or without SB203580, rPAI-1, or α-PAI-1 mAb were determined by Kaplan-Meier analysis. All tests were performed using SPSS14.0 software (SPSS Inc.). All in vivo survival rate data were evaluated by Log Lank test. All other in vivo and in vitro data were evaluated by Student t-test. Statistical significance was accepted at a value of p<0.05.

C[S+]([O-])c1ccc(-c2nc(-c3ccncc3)c(-c3ccc(F)cc3)[nH]2)cc1 (stereo not shown) [SB203580]
PAI-1 induction by S. pneumoniae WT and PLY (PAI-1): inhibited PAI-1 induction
inoculated mice died within 48 hours (Cyld−/− mice): approximately 80%
survival (Cyld−/− mice): 20%
time after inoculation at which mice started to die (Cyld−/− mice): 12 h
